Source: patent US20140171404A1, “Autotaxin inhibitors” (NOVARTIS AG, priority 2012, published 2014)
Like-named read-outs stand apart in the source and are kept apart here.

Target: T1, Recombinant human ATX (Homo sapiens, UniProt Q13822)
T1 construct: made in house; host or cells: human embryonic kidney (HEK) cells
Assay: Assessing ATX inhibition: released choline, Amplex Red fluorescence
Assay type: biochemical
Details: read-out: IC50
Method: LPC (oleoyl (18:1)) was purchased from Avanti Polar Lipids (Alabaster; AL) and solubilized in methanol to 20 mM. Amplex Red was obtained from Invitrogen Life Technologies (Paisley, UK) and dissolved in DMSO to 10 mM. Choline oxidase and horseradish peroxidase (HRP) were obtained from Sigma Aldrich (Dorset, UK) and dissolved in HBSS to 20 U/ml and 200 U/ml respectively. All reagents were stored at −20° C. in single use aliquots. All experimental measurements were performed in assay buffer made up immediately prior to use (HBSS, 0.01% BSA essentially fatty acid free).
Recombinant human ATX was prepared at Novartis (Basel, CH) in a human embryonic kidney (HEK) cell preparation, and stored in single use aliquots of […] (26 μM) stocks stored at −80° C.
All experimental measurements were performed in black 384 well polystyrene (low volume, round bottom, Corning (3676)) plates. PerkinElmer EnVision (Fluorescence Intensity/Absorbance Monochromator) or Tecan Infinite 200 PRO series plate reader was used to detect change in fluorescent intensity.
ATX activity was determined by measurement of released choline in reactions containing ATX (10 nM), choline oxidase (0.1 U/ml), HRP (100 U/ml), amplex red (50 μM) and LPC 18:1 (10 μM). Compounds of the invention were prepared as 10 point serial dilutions from 1 μM in duplicate and pre-incubated with ATX at 37° C. for 20 minutes prior to the addition of remaining reagents. The liberated choline was measured from changes in fluorescence intensity (λex 530 nm, λem 590 nm) of the product resurofin at 37° C. every 2 minutes over a 40-minute period. ATX activity was measured as a slope of the linear portion of the progress curve, typically between 14 to 24 minutes.
Slope data was exported to Graphpad prism (Graphpad software, San Diego, Calif.) where data was fitted to equation 1.
Y=Bottom+(Top−Bottom)/(1+10̂((Log IC50−X)*HillSlope)) Equation 1: […]

[1] = ATX 10 nM, LPC 18:1 10 μM, pre-incubated with ATX at 37° C. for 20 minutes, Table 1, exemplified compounds

Structure (SMILES)	IC50 [1] [nM]	IC50 (same assay, compounds outside the scope of the invention) [nM]
O=C(NCC1CCN(C(=O)OCc2cc(Cl)cc(Cl)c2)CC1)c1cc(O)no1 [reference compound]	–	> 1000
O=C(NC1CCN(C(=O)CCCCc2c[nH]nn2)CC1)OCc1cc(Cl)cc(Cl)c1 [Example 52, 3,5-Dichlorobenzyl (1-(5-(1H-1,2,3-triazol-4-yl)pentanoyl)piperidin-4-yl)carbamate]	42	–
O=C(O)CCCCCCC(=O)NC1CCN(C(=O)OCc2cc(Cl)cc(Cl)c2)CC1 [Example 40, 8-((1-(((3,5-Dichlorobenzyl)oxy)carbonyl)piperidin-4-yl)amino)-8-oxooctanoic acid]	135	–
CN(CCC1CN(C(=O)OCc2cc(Cl)cc(Cl)c2)CCO1)C(=O)c1c[nH]c(=O)o1 (stereo not shown) [Example 13, 3,5-Dichlorobenzyl 2-(2-(N-methyl-2-oxo-2,3-dihydrooxazole-5-carboxamido)ethyl)morpholine-4-carboxylate]	828	–
CN(CCC1CCN(C(=O)OCc2cc(Cl)cc(Cl)c2)CC1)C(=O)c1nn[nH]n1 [Example 29, 3,5-Dichlorobenzyl 4-(2-(N-methyl-2H-tetrazole-5-carboxamido)ethyl)piperidine-1-carboxylate]	541	–
O=C(CCCc1c[nH]nn1)NC1CCN(C(=O)COc2cc(Cl)cc(Cl)c2)CC1 [Example 55, N-(1-(2-(3,5-Dichlorophenoxy)acetyl)piperidin-4-yl)-4-(1H-1,2,3-triazol-4-yl)butanamide]	154	–
O=C(CCCc1c[nH]nn1)NC1CCN(C(=O)OCc2ccc(Cl)cc2Cl)CC1 [Example 58, 2,4-Dichlorobenzyl 4-(4-(1H-1,2,3-triazol-4-yl)butanamido)piperidine-1-carboxylate]	206	–
O=C(NCCCN1CCN(C(=O)OCc2cc(Cl)cc(Cl)c2)CC1)c1c[nH]nn1 [Example 34, 3,5-Dichlorobenzyl 4-(3-(1H-1,2,3-triazole-4-carboxamido)propyl)piperazine-1-carboxylate]	282	–
Cc1oc(=O)[nH]c1C(=O)N(C)CCC1CCN(C(=O)OCc2cc(Cl)cc(Cl)c2)CC1 [Example 8, 3,5-Dichlorobenzyl 4-(2-(N,5-dimethyl-2-oxo-2,3-dihydrooxazole-4-carboxamido)ethyl)piperidine-1-carboxylate]	360	–
CN(C(=O)CCCc1c[nH]nn1)C1CCN(C(=O)OCc2cc(Cl)cc(Cl)c2)CC1 [Example 18, 3,5-Dichlorobenzyl 4-(N-methyl-4-(1H-1,2,3-triazol-4-yl)butanamido)piperidine-1-carboxylate]	94	–
CN(CCC1CCN(C(=O)OCc2cc(Cl)cc(Cl)c2)CC1)C(=O)c1coc(=O)[nH]1 [Example 24, 3,5-Dichlorobenzyl 4-(2-(N-methyl-2-oxo-2,3-dihydrooxazole-4-carboxamido)ethyl)piperidine-1-carboxylate]	624	–
CN(CCC1CCN(C(=O)OCc2cc(Cl)cc(Cl)c2)CC1)C(=O)Cc1c[nH]nn1 [Example 6, 3,5-Dichlorobenzyl 4-(2-(N-methyl-2-(1H-1,2,3-triazol-4-yl)acetamido)ethyl)piperidine-1-carboxylate]	62	–
O=C(NCCC1CCN(C(=O)OCc2cc(Cl)cc(Cl)c2)CC1)c1nn[nH]n1 [Example 16, 3,5-Dichlorobenzyl 4-(2-(2H-tetrazole-5-carboxamido)ethyl)piperidine-1-carboxylate]	596	–
O=C(CCCc1c[nH]nn1)NC1CCN(C(=O)OCc2ccc(C(F)(F)F)cc2)CC1 [Example 53, 4-(Trifluoromethyl)benzyl 4-(4-(1H-1,2,3-triazol-4-yl)butanamido)piperidine-1-carboxylate]	40	–
O=C(CCCc1c[nH]nn1)NC1CCCN(C(=O)OCc2cc(Cl)cc(Cl)c2)CC1 (stereo not shown) [Example 46, 3,5-Dichlorobenzyl 4-(4-(1H-1,2,3-triazol-4-yl)butanamido)azepane-1-carboxylate]	731	–
CN(CCCN1CCN(C(=O)OCc2cc(Cl)cc(Cl)c2)CC1)C(=O)c1c[nH]c(=O)o1 [Example 26, 3,5-Dichlorobenzyl 4-(3-(N-methyl-2-oxo-2,3-dihydrooxazole-5-carboxamido)propyl)piperazine-1-carboxylate]	156	–
CC1CC(CNC(=O)CCc2cc(O)no2)CCN1C(=O)OCc1cc(Cl)cc(Cl)c1 (stereo not shown) [Example 5]	313	–
CN(CCC1CCN(C(=O)OCc2cc(Cl)cc(Cl)c2)CC1)C(=O)c1c[nH]nn1 [Example 35, 3,5-Dichlorobenzyl 4-(2-(N-methyl-1H-1,2,3-triazole-4-carboxamido)ethyl)piperidine-1-carboxylate]	175	–
O=C(CCCc1c[nH]nn1)NC1CCN(C(=O)CCc2ccc(Cl)cc2Cl)CC1 [Example 43, N-(1-(3-(2,4-Dichlorophenyl)propanoyl)piperidin-4-yl)-4-(1H-1,2,3-triazol-4-yl)butanamide]	113	–
CN(CCC1CCN(C(=O)OCc2cc(Cl)cc(Cl)c2)CC1)C(=O)c1cc(O)[nH]n1 [Example 25, 3,5-Dichlorobenzyl 4-(2-(5-hydroxy-N-methyl-1H-pyrazole-3-carboxamido)ethyl)piperidine-1-carboxylate]	520	–
O=C(CCCc1c[nH]nn1)NC1CCN(C(=O)CCc2ccc(C(F)(F)F)cc2)CC1 [Example 54, 4-(1H-1,2,3-Triazol-4-yl)-N-(1-(3-(4-(trifluoromethyl)phenyl)propanoyl)piperidin-4-yl)butanamide]	87	–
CN(CCC1CCN(C(=O)/C=C/c2cc(Cl)cc(Cl)c2)CC1)C(=O)c1c[nH]c(=O)o1 [Example 30, (E)-N-(2-(1-(3-(3,5-Dichlorophenyl)acryloyl)piperidin-4-yl)ethyl)-N-methyl-2-oxo-2,3-dihydrooxazole-5-carboxamide]	274	–

The next lines start with the values.

IC50 [1] [nM]	IC50 (same assay, compounds outside the scope of the invention) [nM]	Structure (SMILES)
21	–	O=C(CCCc1nnn[nH]1)NC1CCN(C(=O)OCc2cc(Cl)cc(Cl)c2)CC1 [Example 74, 3,5-Dichlorobenzyl 4-(4-(1H-tetrazol-5-yl)butanamido)piperidine-1-carboxylate]
8	–	N#Cc1cc(Cl)cc(COC(=O)N2CCC(NC(=O)CCCCc3c[nH]nn3)CC2)c1 [Example 64, 3-Chloro-5-cyanobenzyl 4-(5-(1H-1,2,3-triazol-4-yl)pentanamido)piperidine-1-carboxylate]
4	–	N#Cc1cc(COC(=O)N2CCC(NC(=O)CCCc3c[nH]nn3)CC2)cc(C(F)(F)F)c1 [Example 66, 3-Cyano-5-(trifluoromethyl)benzyl 4-(4-(1H-1,2,3-triazol-4-yl)butanamido)piperidine-1-carboxylate]
5	–	Cc1cc(COC(=O)N2CCC(NC(=O)CCCc3c[nH]nn3)CC2)cc(C(F)(F)F)c1 [Example 62, 3-Methyl-5-(trifluoromethyl)benzyl 4-(4-(1H-1,2,3-triazol-4-yl)butanamido)piperidine-1-carboxylate]
29	–	N#Cc1cc(Cl)cc(COC(=O)N2CCC(NCCCCc3c[nH]nn3)CC2)c1 [Example 75]
5	–	N#Cc1cc(COC(=O)N2CCC(NC(=O)CCCc3c[nH]nn3)CC2)cc(OC(F)(F)F)c1 [Example 70, 3-Cyano-5-(trifluoromethoxy)benzyl 4-(4-(1H-1,2,3-triazol-4-yl)butanamido)piperidine-1-carboxylate]
26	–	N#Cc1cc(Cl)cc(COC(=O)N2CCC(NC(=O)CCc3c[nH]nn3)CC2)c1 [Example 65, 3-Chloro-5-cyanobenzyl 4-(3-(1H-1,2,3-triazol-4-yl)propanamido)piperidine-1-carboxylate]
15	–	O=C(CC1CCN(C(=O)OCc2cc(Cl)cc(Cl)c2)CC1)NCCc1c[nH]nn1 [Example 61, 3,5-Dichlorobenzyl 4-(2-((2-(1H-1,2,3-triazol-4-yl)ethyl)amino)-2-oxoethyl)piperidine-1-carboxylate]
3	–	O=C(CCCc1c[nH]nn1)NC1CCN(C(=O)OCc2cc(Br)cc(C(F)(F)F)c2)CC1 [Example 63, 3-Bromo-5-(trifluoromethyl)benzyl 4-(4-(1H-1,2,3-triazol-4-yl)butanamido)piperidine-1-carboxylate]
2	–	O=C(CCCc1c[nH]c(=O)s1)NC1CCN(C(=O)OCc2cc(Cl)cc(Cl)c2)CC1 [Example 73, 3,5-Dichlorobenzyl 4-(4-(2-oxo-2,3-dihydrothiazol-5-yl)butanamido)piperidine-1-carboxylate]
21	–	O=C(CCCc1c[nH]nn1)NC1CCN(C(=O)/C=C/c2cc(Cl)cc(Cl)c2)CC1 [Example 38, (E)-N-(1-(3-(3,5-Dichlorophenyl)acryloyl)piperidin-4-yl)-4-(1H-1,2,3-triazol-4-yl)butanamide]
29	–	CN(CCC1CCN(C(=O)OCc2cc(Cl)cc(Cl)c2)CC1)C(=O)c1c[nH]c(=O)s1 [Example 15, 3,5-Dichlorobenzyl 4-(2-(N-methyl-2-oxo-2,3-dihydrothiazole-5-carboxamido)ethyl)piperidine-1-carboxylate]
